Here are results for 1 compound from patent US20030096311A1, “Screening method for compounds” (priority 2000, published 2003).

The target in one experiment is T1, IL-4 (Homo sapiens, UniProt P05112).
T1 sequence (P05112 25-153): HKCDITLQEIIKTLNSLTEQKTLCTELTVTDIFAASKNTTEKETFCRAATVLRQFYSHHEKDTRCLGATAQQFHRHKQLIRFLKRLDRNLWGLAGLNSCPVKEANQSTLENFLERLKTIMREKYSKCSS
Put plainly: Western blot with anti-BP antibody: comparative study with IL-4. In kind it is binding. The following applies: IL-4 in place of IFN-γ; compared with IFN-γ. How it is done: (§1) SDS-PAGE and Western Blotting techniques using for this method were performed as follows. Carrier-free recombinant human IFN-γ (PeproTech, London, UK) was made to 10 μg/ml and incubated overnight with or without BP (final concentrations 25, 5, 0.5 mg/ml). At the end of the incubation period, 5×loading buffer was added and 20 μl of each sample loaded onto SDS-polyacrylamide gels. The gels were then analyzed by Western blotting, using a rabbit polyclonal anti-BP antibody. A comparative study was conducted using IL-4 in place of IFN-γ.
(§2) Carrier-free recombinant human IFN-γ (PeproTech, London, UK) were made to 10 μg/ml and incubated overnight with or without Benzyl Penicillin (BP) (final concentrations: 25, 5, 0.5 mg/ml). At the end of the incubation period, 5×loading buffer was added and 20 μl of each sample loaded onto SDS-polyacrylamide gels. For all samples, aliquots were then analyzed by Western blotting, using a rabbit polyclonal anti-BP antibody. A comparative study was conducted using IL-4 in place of IFN-γ.

Experiment [1] has as its target T2, IFN-γ (Homo sapiens, UniProt P01579).
T2 sequence (P01579 24-166): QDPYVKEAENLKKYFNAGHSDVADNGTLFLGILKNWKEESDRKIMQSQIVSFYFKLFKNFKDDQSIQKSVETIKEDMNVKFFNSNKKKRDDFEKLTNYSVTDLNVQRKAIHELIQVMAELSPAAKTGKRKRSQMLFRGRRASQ
Put plainly: IFN-γ mediated up-regulation of MCP-1 mRNA in A549 cells (RNase protection). In kind it is cell-based.

Experiment [2] has as its target T2, IFN-γ. As to the kind of experiment: Western blot with anti-BP antibody: conjugation of BP to IFN-γ. In kind it is binding. Set-up: purchased PeproTech, London, UK. The note with it: IFN-γ 10 μg/ml overnight with BP 25, 5, 0.5 mg/ml. The protocol: as §1
Referring now to FIG. 1, there is shown a Western blot illustrating the conjugation of BP to or interaction of BP to IFN-γ. FIG. 1 illustrates a method by which conjugation or interaction of a substance with a cytokine, namely IFN-γ, can be determined.
as §2
A general note: In western blotting, separated proteins are transferred to a membrane and probed.

Experiment [3] addresses T2, IFN-γ. Put plainly: IFN-γ induction of MHC class II DR on peripheral blood monocytes after BP pre-incubation. The note with it: IFN-γ 1 μg/ml pre-incubated overnight with various concentrations of BP; HMC-1 pulsed, co-cultured with PBM. In kind it is cell-based. How it is done: Referring now to FIG. 2, there is shown a graph illustrating the results of a determination of whether the effect of conjugation or interaction of the substance, BP, with IFN-γ has an effect on IFN-γ activity. In summary, IFN-γ was tested for induction of MHC class II DR on human peripheral blood monocytes (PBM) as follows.
IFN-γ (1 μg/ml) was incubated overnight with various concentrations of BP. HMC-1 cells were pulsed with or without IFN-γ (10 ng/ml), BP, or BP-treated IFN-γ, for 30 min and washed 3 times in PBS. The cells were resuspended in IFS and co-cultured (2×10^5) overnight with PBM (2×10^5) in a total volume of 200 μl in polypropylene tubes (Falcon). Six tubes were set up for each HMC-1 treatment.

In experiment [4] the target is T3, IFN-γ (Homo sapiens, UniProt P01579).
T3 sequence (P01579 24-161 limits assumed): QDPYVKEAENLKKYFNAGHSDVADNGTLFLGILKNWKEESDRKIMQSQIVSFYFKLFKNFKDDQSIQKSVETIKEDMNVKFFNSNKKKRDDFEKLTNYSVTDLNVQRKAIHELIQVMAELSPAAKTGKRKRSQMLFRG
As to the kind of experiment: ELISA detection of IFN-γ after overnight cell-free incubation with BP. In kind it is binding. The note with it: overnight with BP 500 μg/ml. The protocol:
The generation of PBMC supernatants and RNA used for this method were prepared as follows. PBMC ([…]) were incubated in RPMI-1640 medium containing TCH (ICN) with or without PHA (Sigma, 2.5 μg/ml). At each time point, samples were centrifuged for 5 min at 400 g, the supernatants collected and analyzed of IFN-γ by ELISA (IDS, Boldon, UK).
Purified recombinant IFN-γ or cell-free supernatants from stimulated PBMC were incubated overnight with BP (500 μg/ml), then assayed by ELISA, Supernatant 1, PBMC stimulated for 20 hours with IL-2; supernatant 2, PBMC stimulated for 43 hours with IL-2; supernatant 3, PBMC stimulated for 43 hours with PHA.
(In general: An ELISA detects its analyte on a solid surface through an enzyme-linked reagent.)

As to `CC1(C)S[C@@H]2[C@H](NC(=O)Cc3ccccc3)C(=O)N2[C@H]1C(=O)O` [BP, benzyl penicillin], the “conjugation to IL-4” value at IL-4 is “conjugates to IL-4, though to a substantially lesser degree than to IFN-γ”. The “induction of MCP-1 mRNA by IFN-γ” value is “less marked inhibiting effect” at IFN-γ [1] (BP mixed with IFN-γ immediately before addition to A549 cells, lanes 10-12) and “inhibited induction of MCP-1 mRNA” at IFN-γ [1] (IFN-γ pre-incubated overnight with BP (20 or 10 mg/ml), A549 cells, 2 hours, lanes 4-6). Besides, on IFN-γ [2], the “conjugation to IFN-γ” value is “conjugates to IFN-γ”. In addition, the “IFN-γ bioactivity (increase in DR median fluorescence on PBM)” value on IFN-γ [3] is recorded as “reduced its bioactivity in a concentration dependent manner”. Further, the “IFN-γ (pg/ml) detected with BP” value at IFN-γ [4] (PBMC supernatant 1 (IL-2, 20 hours), without BP 152) is 0 pg/mL; on IFN-γ [4] (PBMC supernatant 2 (IL-2, 43 hours), without BP 389), 0 pg/mL; at IFN-γ [4] (PBMC supernatant 3 (PHA, 43 hours), without BP >400), 92 pg/mL; at IFN-γ [4] (recombinant IFN-γ 200 pg/ml, without BP 192) it was 13 pg/mL; at IFN-γ [4] (recombinant IFN-γ 1000 pg/ml, without BP 1015) it was 70 pg/mL.
